Measurements from patent US20210261512A1, “NOVEL COMPOUNDS” (INFLAZOME LIMITED, priority 2018, published 2021).

Assays:
[1] = biological target: T1, NLRP3 (Homo sapiens, UniProt Q96P20); assay: THP-1 cells pyroptosis assay; assay type: cell-based; parameters: Seed THP-1 cells (25,000 cells/well) containing 1.0 μg/ml LPS; host or cells: THP-1; conditions: LPS 1.0 μg/ml, nigericin 5 μM, resazurin readout, 10 μM top dose (Example 2: top dose of 30 μM)
In short: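 Pyroptosis induced by 5 μM nigericin (1 h) in LPS-primed (1 μg/ml) THP-1 cells, 25,000/well in serum-free RPMI, after 3 h compound pre-treatment (8 points, 10 μM top unless stated). Surviving cells measured with 100 μM resazurin, Ex 560/Em 590; IC50 via variable-slope 4-parameter regression.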

[2] = biological target: T1, NLRP3; assay: Human whole blood IL1β release assay; assay type: cell-based; conditions: LPS 1 μg/ml, nigericin 10 μM, IL-1β AlphaLisa, 10 μM top dose (Example 2: top dose of 30 μM), read-out: HWB IC50
Experimental: For systemic delivery, the ability to inhibit NLRP3 when the compounds are present within the bloodstream is of great importance. For this reason, the NLRP3 inhibitory activity of a number of compounds in human whole blood was investigated in accordance with the following protocol.
Human whole blood in sodium-heparin or lithium-heparin tubes was obtained from healthy donors from a volunteer donor panel. • 1. Plate out 80 μl of whole blood containing 1 μg/ml of LPS in 96-well, clear bottom cell culture plate (Corning #3585) • 2. Add 10 μl compound (8 points half-log dilution with 10 μM top dose, unless stated otherwise) or vehicle (DMSO 0.1% FAC) to the appropriate wells • 3. Incubate for 3 hrs at 37° C., 5% CO2 • 4. Add 10 μl nigericin (Sigma #N7143) (10 μM FAC) to all wells • 5. Incubate for 1 hr at 37° C., 5% CO2 • 6. At the end of the incubation period, spin plates at 300×g for 5 mins to pellet cells and remove 20 μl of supernatant and add to 96-well v-bottom plates for IL-1β analysis (note: these plates containing the supernatants can be stored at −80° C. to be analysed at a later date) • 7. IL-1β was measured according to the manufacturer protocol (Perkin Elmer-AlphaLisa IL-1 Kit AL220F-5000) • 8. IC50 data is fitted to a non-linear regression equation (log inhibitor vs response-variable slope 4-parameters)

T1 sequence (Q96P20 whole entry): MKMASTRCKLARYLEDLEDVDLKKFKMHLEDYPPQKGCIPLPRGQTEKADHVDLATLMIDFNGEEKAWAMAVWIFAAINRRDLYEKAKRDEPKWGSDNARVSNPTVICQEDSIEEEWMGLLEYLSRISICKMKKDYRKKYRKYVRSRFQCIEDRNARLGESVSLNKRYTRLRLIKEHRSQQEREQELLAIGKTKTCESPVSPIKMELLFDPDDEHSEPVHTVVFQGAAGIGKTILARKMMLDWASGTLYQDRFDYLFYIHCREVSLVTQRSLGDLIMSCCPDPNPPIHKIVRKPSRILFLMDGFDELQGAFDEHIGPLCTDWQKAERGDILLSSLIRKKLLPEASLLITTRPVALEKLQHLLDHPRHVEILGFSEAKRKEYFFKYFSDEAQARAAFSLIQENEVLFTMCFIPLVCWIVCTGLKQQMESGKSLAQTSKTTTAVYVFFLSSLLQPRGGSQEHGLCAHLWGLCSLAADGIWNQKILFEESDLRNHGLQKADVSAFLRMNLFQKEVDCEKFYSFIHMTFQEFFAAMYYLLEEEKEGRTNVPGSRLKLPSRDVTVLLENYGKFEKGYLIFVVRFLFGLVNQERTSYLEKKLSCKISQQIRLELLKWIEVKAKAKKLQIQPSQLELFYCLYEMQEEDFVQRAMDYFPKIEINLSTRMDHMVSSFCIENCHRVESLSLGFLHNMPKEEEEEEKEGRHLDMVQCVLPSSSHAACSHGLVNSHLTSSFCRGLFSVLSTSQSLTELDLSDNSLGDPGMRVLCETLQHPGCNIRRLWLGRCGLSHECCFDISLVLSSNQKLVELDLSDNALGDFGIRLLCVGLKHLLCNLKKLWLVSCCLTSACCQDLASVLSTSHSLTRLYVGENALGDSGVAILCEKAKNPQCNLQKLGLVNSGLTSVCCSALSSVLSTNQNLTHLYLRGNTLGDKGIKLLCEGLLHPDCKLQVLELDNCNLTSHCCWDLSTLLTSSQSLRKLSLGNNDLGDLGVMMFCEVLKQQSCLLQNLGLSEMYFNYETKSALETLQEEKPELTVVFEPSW

IC50 [1] [µM] | IC50 [2] [µM] | SMILES
≤ 0.5 | ≤ 10 | NS(=O)(=O)c1ccccc1S(=O)(=O)c1nnc(Nc2c3c(cc4c2CCC4)CCC3)[nH]1 [Example 325, 2-((5-((1,2,3,5,6,7-hexahydro-s-indacen-4-yl)amino)-4H-1,2,4-triazol-3-yl)sulfonyl)benzenesulfonamide]
≤ 0.5 | ≤ 5 | CCNC[C@H]1CCN(S(=O)(=O)c2nnc(Nc3c4c(cc5c3CCC5)CCC4)[nH]2)C1 [Example 308, (R)-5-((3-((ethylamino)methyl)pyrrolidin-1-yl)sulfonyl)-N-(1,2,3,5,6,7-hexahydro-s-indacen-4-yl)-4H-1,2,4-triazol-3-amine]
≤ 5 | ≤ 10 | CN1CCCCC1CNS(=O)(=O)c1nnc(Nc2c3c(cc4c2CCC4)CCC3)[nH]1 (centres unmarked) [Example 141, 5-((1,2,3,5,6,7-hexahydro-s-indacen-4-yl)amino)-N-((1-methylpiperidin-2-yl)methyl)-4H-1,2,4-triazole-3-sulfonamide]
≤ 1 | ≤ 5 | O=S(=O)(NCCCN1CCCC1)c1nnc(Nc2c3c(cc4c2CCC4)CCC3)[nH]1 [Example 126, 5-((1,2,3,5,6,7-hexahydro-s-indacen-4-yl)amino)-N-(3-(pyrrolidin-1-yl)propyl)-4H-1,2,4-triazole-3-sulfonamide]
≤ 0.5 | ≤ 0.5 | [2H]C([2H])([2H])Oc1cc(-c2ccc3c(c2Nc2nnc(S(=O)(=O)N4CCC(N(C)C)CC4)[nH]2)CCC3)ccn1 [Example 227, 1-((5-((5-(2-(methoxy-d3)pyridin-4-yl)-2,3-dihydro-1H-inden-yl)amino)-4H-1,2,4-triazol-3-yl)sulfonyl)-N,N-dimethylpiperidin-4-amine]
≤ 0.5 | ≤ 1 | CN(C)CC1CCN(S(=O)(=O)c2nnc(Nc3c4c(cc5c3CCC5)CCC4)[nH]2)CC1 [Example 304, 5-((4-((dimethylamino)methyl)piperidin-1-yl)sulfonyl)-N-(1,2,3,5,6,7-hexahydro-s-indacen-4-yl)-4H-1,2,4-triazol-3-amine]
≤ 0.5 | ≤ 10 | CC(c1cc(S(=O)(=O)c2nnc(Nc3c4c(cc5c3CCC5)CCC4)[nH]2)nn1C)N(C)C (centres unmarked) [Example 5, 5-((5-(1-(dimethylamino)ethyl)-1-methyl-1H-pyrazol-3-yl)sulfonyl)-N-(1,2,3,5,6,7-hexahydro-s-indacen-4-yl)-4H-1,2,4-triazol-3-amine]
≤ 1 | ≤ 5 | O=S(=O)(c1nnc(Nc2c3c(cc4c2CCC4)CCC3)[nH]1)N1CC2(CCC(O)C2)C1 (centres unmarked) [Example 346, 2-((5-((1,2,3,5,6,7-hexahydro-s-indacen-4-yl)amino)-4H-1,2,4-triazol-3-yl)sulfonyl)-2-azaspiro[3.4]octan-6-ol]
≤ 0.5 | ≤ 10 | NS(=O)(=O)c1ccc(S(=O)(=O)c2nnc(Nc3c4c(cc5c3CCC5)CCC4)[nH]2)cc1 [Example 366, 4-((5-((1,2,3,5,6,7-hexahydro-s-indacen-4-yl)amino)-4H-1,2,4-triazol-3-yl)sulfonyl)benzenesulfonamide]
≤ 0.5 | ≤ 5 | O=S(=O)(c1nnc(Nc2c3c(cc4c2CCC4)CCC3)[nH]1)N1CC(N2CCCC2)C1 [Example 136, N-(1,2,3,5,6,7-hexahydro-s-indacen-4-yl)-5-((3-(pyrrolidin-1-yl)azetidin-1-yl)sulfonyl)-4H-1,2,4-triazol-3-amine]
≤ 1 | ≤ 10 | O=S(=O)(c1nnc(Nc2c3c(cc4c2CCC4)CCC3)[nH]1)N1CC[C@H](CNC2CC2)C1 [Example 307, (R)-5-((3-((cyclopropylamino)methyl)pyrrolidin-1-yl)sulfonyl)-N-(1,2,3,5,6,7-hexahydro-s-indacen-4-yl)-4H-1,2,4-triazol-3-amine]
≤ 5 | ≤ 10 | O=S(=O)(c1nnc(Nc2c3c(cc4c2CCC4)CCC3)[nH]1)N1CCCC1 [Example 122, N-(1,2,3,5,6,7-hexahydro-s-indacen-4-yl)-5-(pyrrolidin-1-ylsulfonyl)-4H-1,2,4-triazol-3-amine]
≤ 0.5 | ≤ 0.5 | CNCC1CN(S(=O)(=O)c2nnc(Nc3c4c(cc5c3CCC5)CCC4)[nH]2)C1 [Example 279, N-(1,2,3,5,6,7-hexahydro-s-indacen-4-yl)-5-((3-((methylamino)methyl)azetidin-1-yl)sulfonyl)-4H-1,2,4-triazol-3-amine]
≤ 0.5 | ≤ 5 | CN(C)C1CCN(S(=O)(=O)c2nnc(Nc3c(-c4ccnc(C5CC5)c4)ccc4c3CCC4)[nH]2)CC1 [Example 199, 1-((5-((5-(2-cyclopropylpyridin-4-yl)-2,3-dihydro-1H-inden-4-yl)amino)-4H-1,2,4-triazol-3-yl)sulfonyl)-N,N-dimethylpiperidin-4-amine]
≤ 0.5 | ≤ 10 | CC(C)N(CCNS(=O)(=O)c1nnc(Nc2c3c(cc4c2CCC4)CCC3)[nH]1)C(C)C [Example 110, N-(2-(diisopropylamino)ethyl)-5-((1,2,3,5,6,7-hexahydro-s-indacen-4-yl)amino)-4H-1,2,4-triazole-3-sulfonamide]
≤ 5 | ≤ 5 | CC(C)(O)C1CN(S(=O)(=O)c2nnc(Nc3c4c(cc5c3CCC5)CCC4)[nH]2)C1 [Example 151, 2-(1-((5-((1,2,3,5,6,7-hexahydro-s-indacen-4-yl)amino)-4H-1,2,4-triazol-3-yl)sulfonyl)azetidin-3-yl)propan-2-ol]
≤ 5 | ≤ 5 | CC1(O)CCN(S(=O)(=O)c2nnc(Nc3c4c(cc5c3CCC5)CCC4)[nH]2)CC1 [Example 292, 1-((5-((1,2,3,5,6,7-hexahydro-s-indacen-4-yl)amino)-4H-1,2,4-triazol-3-yl)sulfonyl)-4-methylpiperidin-4-ol]
≤ 0.5 | ≤ 0.5 | CN(C)CC1CN(S(=O)(=O)c2nnc(Nc3c4c(cc5c3CCC5)CCC4)[nH]2)C1 [Example 291, 5-((3-((dimethylamino)methyl)azetidin-1-yl)sulfonyl)-N-(1,2,3,5,6,7-hexahydro-s-indacen-4-yl)-4H-1,2,4-triazol-3-amine]
≤ 0.5 | ≤ 1 | COc1cc(-c2ccc3c(c2Nc2nnc(S(=O)(=O)N4CCC(N(C)C)CC4)[nH]2)CCC3)ccn1 [Example 228, 1-((5-((5-(2-methoxypyridin-4-yl)-2,3-dihydro-1H-inden-4-yl)amino)-4H-1,2,4-triazol-3-yl)sulfonyl)-N,N-dimethylpiperidin-4-amine]
≤ 0.5 | ≤ 0.5 | CCN(CC)C[C@H]1CCN(S(=O)(=O)c2nnc(Nc3c4c(cc5c3CCC5)CCC4)[nH]2)C1 [Example 144, (R)-5-((3-((diethylamino)methyl)pyrrolidin-1-yl)sulfonyl)-N-(1,2,3,5,6,7-hexahydro-s-indacen-4-yl)-4H-1,2,4-triazol-3-amine]
≤ 0.5 | ≤ 10 | CC(C)(O)C1CCN(S(=O)(=O)c2nnc(Nc3c4c(cc5c3CCC5)CCC4)[nH]2)CC1 [Example 293, 2-(1-((5-((1,2,3,5,6,7-hexahydro-s-indacen-4-yl)amino)-4H-1,2,4-triazol-3-yl)sulfonyl)piperidin-4-yl)propan-2-ol]
≤ 0.5 | ≤ 1 | COc1cc(-c2ccc3c(c2Nc2nnc(S(=O)(=O)N4CCC5(CCN5C)CC4)[nH]2)CCC3)ccn1 [Example 204, N-(5-(2-methoxypyridin-4-yl)-2,3-dihydro-1H-inden-4-yl)-5-((1-methyl-1,7-diazaspiro[3.5]nonan-7-yl)sulfonyl)-4H-1,2,4-triazol-3-amine]
